# In article PMC12132910, “A Novel Inhibitor against the Bromodomain Protein 1 of the Malaria Pathogen Plasmodium Falciparum” (Chemmedchem, 2025):
# Key:
# [1] = tested on: 3D7::PfBDP1HADD parasites; test: Dose-response assay in conditional PfBDP1 knockdown parasites; assay type: cell-based, Plasmodium falciparum; details: 10 nM Shld1 compared to 500 nM Shld1, 72 h
# From the text: To validate whether the compounds indeed target the BRD of PfBDP1, we utilized a conditional KD system to modulate the expression levels of PfBDP1 in situ.^[ [15] ^] In the 3D7::PfBDP1HADD line, PfBDP1 is fused at its C‐terminus to a ligand‐regulatable FKBP destabilization domain (DD) that targets the fusion protein for proteasomal degradation but can be stabilized by the Shield1 ligand, and 3xHA epitope tags for detection ^11. […] In contrast, the EC50 of chloroquine was unchanged.
# A) Western Blot analysis of 3D7::PfBDP1HADD parasites cultivated in the presence of Shield1 (Shld) in concentrations ranging from 0 to 500 nM over 72 h in duplicates. PfBDP1HADD was detected by anti‐HA antibodies. Histone 3 (H3) was probed as a loading control. […] Growth was determined relative to DMSO controls for each condition after 72 h of culture. N = 4 replicates. […] Binding of PfBDP1HA to target loci was calculated as enrichment relative to histone H3 ChIP performed in parallel. Shown are individual values and median of one representative experiment with technical duplicates. Paired t‐test, p = 0.0015. […]
# resistant strain K1, MRA-159, contributed by Dennis E. Kyle. The NF54::PfBDP1HA parasite line was generated by transfection of NF54 parasites with the plasmid pSLI_PfBDP1_3xHA and selection linked integration of the construct in the presence of G418[21]. […]
# (§1) Malaria SYBR green I based fluorescence assay
# SYBR Green I based fluorescence assays to determine dose-response curves were performed essentially as described previously (Leidenberger et al., 2017). […] After 72 hours, cultures were lysed in lysis buffer (20 mM Tris-HCl, 5 mM EDTA, 0.008% saponin (Sigma-Aldrich), 0.08% Triton X (Sigma-Aldrich), 1:10,000 SYBR Green I dye (Invitrogen)) and fluorescence was measured in a Fluoroskan Ascent FL reader (excitation: 485 nm, emission: 530 nm). […]
# [2] = tested on: P. falciparum 3D7; test: Malaria SYBR green I based fluorescence assay, dose response, 3D7; assay type: cell-based; details: Plasmodium falciparum, blood stage culture, 72 hours, mean (SD), 1 to 3 biological replicates
# Experimental: (§2) The BRDi compounds had modest activity against all three strains (Table 2 ). […]
# (§3) Shield1. Parasites were propagated in human red blood cells (blood group 0+) obtained from the Bavarian Red Cross service (BRK) and cultivated under standard conditions in RPMI 1640 (ThermoFisher) supplemented with 0.5% Albumax
# (§4) (ThermoFisher), 20 µg/ml Gentamycin, 25 mM Hepes (pH 7.3), and 0.02% hypoxanthine in an atmosphere of 1% O2, 5% CO2, 94% N2.
# as §1
# (§5) SYBR Green I based fluorescence assays to determine dose-response curves were performed essentially as described previously (Leidenberger et al., 2017). Briefly, parasite cultures were diluted to 1% ring stage parasitemia and cultivated at 2.5% haematocrit in 96 well plates in the presence of serial half-log dilutions of the compounds ranging from 100 µM to 10 nM or DMSO (dimethyl sulfoxide) corresponding to the highest concentration (0.1%). Chloroquine (C6628, Sigma-Aldrich) was used as control that was not expected to target PfBDP1 and was titrated from 5 µM to 1.6 nM. After 72 hours, cultures were lysed in lysis buffer (20 mM Tris-HCl, 5 mM EDTA, 0.008% saponin (Sigma-Aldrich), 0.08% Triton X (Sigma-Aldrich), 1:10,000 SYBR Green I dye (Invitrogen)) and fluorescence was measured in a Fluoroskan Ascent FL reader (excitation: 485 nm, emission: 530 nm). […]
# [3] = tested on: P. falciparum NF54; test: Malaria SYBR green I based fluorescence assay, dose response, NF54; assay type: cell-based; details: Plasmodium falciparum, blood stage culture, 72 hours, mean (SD), 1 to 3 biological replicates
# Experimental: as §2, §3, §4, §1, §5
# [4] = tested on: P. falciparum 3D7; test: Growth of synchronous ring-stage cultures under treatment, 3D7; assay type: cell-based, Plasmodium falciparum; details: 3D7, synchronous ring stage, 48 h of treatment
# [5] = tested on: P. falciparum NF54; test: Growth of synchronous ring-stage cultures under treatment, NF54; assay type: cell-based, Plasmodium falciparum; details: 48 h of treatment
# [6] = tested on: P. falciparum blood stage parasites; test: Morphology and stage progression of treated synchronous parasites; assay type: cell-based, Plasmodium falciparum
# [7] = tested on: P. falciparum K1 (multidrug resistant); test: Malaria SYBR green I based fluorescence assay, dose response, K1; assay type: cell-based; details: Plasmodium falciparum, K1, 72 h, read-out: EC50 K1
# Experimental: as §2
# resistant strain K1, MRA-159, contributed by Dennis E. Kyle. […]
# as §3, §4, §1, §5
smiles,measurement,setting,value
"Cc1cc(C(N)=O)ccc1-c1[nH]c(C)c2c1CCCCC2=O [RMM23, 3-Methyl-4-(3-methyl-4-oxo-2,4,5,6,7,8-hexahydrocyclohepta[c]pyrrol-1-yl)benzamide]","change of sensitivity (dose-response, EC50) under partial PfBDP1 knockdown",[1],increased sensitivity
same,EC50,[2],18.3 µM
same,EC50,[3],14 µM
same,parasite growth after treatment of ring-stage culture,[4],significantly reduced growth
same,parasite growth after treatment of ring-stage culture,[5],significantly reduced growth
same,parasite development (morphology) after treatment from ring stage,"[6]; treatment started at ring stage, normal trophozoites by 24 h",failed to undergo DNA replication and schizogony
same,parasite development after treatment from trophozoite stage,"[6]; treatment started at trophozoite stage, within 24 h, relative to DMSO control",block in egress and reinvasion
same,EC50,[7],20.9 µM
